Read-outs that look alike come from different tables or passages of the source. Square brackets hold non-standard residues; d marks the D form. Peptide text beside a SMILES is read from it. * marks the point of attachment. X1 = COC1=CC(=O)N(C(=O)[C@@H](O*)C(C)C)[C@H]1Cc1ccccc1; NMe2Val = CC(C)[C@@H](C(=O)*)N(C)C; NMeV = CN[C@H](C(=O)O)C(C)C

The target of experiment [1] is T1, porcine brain tubulin (Sus scrofa, UniProt P02550+P02554). The class given is binding.
The test system of experiment [2] is porcine brain tubulin. The class given is biochemical.
In experiment [3] the target is T2, porcine brain microtubule protein (Sus scrofa, UniProt P02550+P02554). The experiment is described as follows: biochemical.
T2 sequence (P02550 whole entry): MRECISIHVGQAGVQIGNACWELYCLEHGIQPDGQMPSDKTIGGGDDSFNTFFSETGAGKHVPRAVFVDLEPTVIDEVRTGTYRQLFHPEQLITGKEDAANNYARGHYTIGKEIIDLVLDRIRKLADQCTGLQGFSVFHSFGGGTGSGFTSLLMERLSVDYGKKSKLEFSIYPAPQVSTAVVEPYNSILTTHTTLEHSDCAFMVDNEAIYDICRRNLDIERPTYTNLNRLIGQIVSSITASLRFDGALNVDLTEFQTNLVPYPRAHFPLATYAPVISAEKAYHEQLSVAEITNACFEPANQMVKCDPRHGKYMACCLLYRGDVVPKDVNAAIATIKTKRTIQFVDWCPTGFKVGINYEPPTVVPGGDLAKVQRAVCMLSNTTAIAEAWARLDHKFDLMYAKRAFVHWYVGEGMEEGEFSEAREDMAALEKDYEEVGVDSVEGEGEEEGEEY
T2 sequence (P02554 whole entry): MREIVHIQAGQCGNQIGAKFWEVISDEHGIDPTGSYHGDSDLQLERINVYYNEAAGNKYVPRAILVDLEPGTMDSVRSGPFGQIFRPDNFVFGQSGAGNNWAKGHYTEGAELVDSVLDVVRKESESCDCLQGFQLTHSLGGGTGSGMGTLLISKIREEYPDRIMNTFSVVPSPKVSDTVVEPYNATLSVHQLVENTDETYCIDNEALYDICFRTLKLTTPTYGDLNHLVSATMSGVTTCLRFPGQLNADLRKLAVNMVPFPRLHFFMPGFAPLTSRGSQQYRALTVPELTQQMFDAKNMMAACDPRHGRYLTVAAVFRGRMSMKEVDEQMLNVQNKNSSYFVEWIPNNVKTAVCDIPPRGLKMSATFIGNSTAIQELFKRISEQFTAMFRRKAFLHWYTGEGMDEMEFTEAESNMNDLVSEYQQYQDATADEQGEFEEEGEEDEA
The target of experiment [4] is T3, bovine brain tubulin (Bos taurus, UniProt P81947+Q6B856). The experiment is described as follows: biochemical.
T3 sequence (P81947 whole entry): as the sequence (P02550 whole entry) above, with S136L, G232S, A265I, T340S, E358Q counted along it
T3 sequence (Q6B856 whole entry): as the sequence (P02554 whole entry) above, with A55T, V170M, A296S, V316I, G440E, E441G counted along it
Experiment [5] concerns porcine brain tubulin. The class given is binding.
Experiment [6] deals with T3, bovine brain tubulin. The conditions noted are these: read-out: IC50, inhibition of monosodium glutamate-induced tubulin polymerization; in 4% DMSO; ref 8 (Bai et al.); cited from earlier work.
Experiment [7] concerns the target T1, porcine brain tubulin. Briefly: biochemical. The class given is binding.
Experiment [8] addresses T2, porcine brain microtubule protein. Briefly: biochemical. As to conditions: read-out: inhibition of microtubule polymerization, agent alone.
Experiment [9] relates to porcine brain tubulin. As to conditions: ref 28 (Huang et al.); cited from earlier work.

T1 sequence (P02550 whole entry): as the sequence (P02550 whole entry) above
T1 sequence (P02554 whole entry): as the sequence (P02554 whole entry) above

Consider `COC1=CC(=O)N(C(=O)[C@@H](OC(=O)[C@@H]2CCCN2C(=O)[C@@H]2CCCN2C(=O)[C@H](C(C)C)N(C)C(=O)[C@@H](NC(=O)[C@H](C(C)C)N(C)C)C(C)C)C(C)C)[C@H]1Cc1ccccc1` [dolastatin 15] (NMe2Val-V[NMeV]PP-X1), for which, on porcine brain tubulin [1], the “displacement of [3H]TZT-1027 on tubulin” value is “did not have remarkable inhibitory effects” and the “displacement of [3H]VLB on tubulin” value is reported as “did not have remarkable inhibitory effects”. In addition, the “inhibition of GTP hydrolysis on tubulin” value with porcine brain tubulin [2] was “concentration-dependent inhibition”.
Broadly, the IC50 is the concentration needed to halve the response being measured. Usually inhibition stands for how much of the control response was suppressed. `CC[C@H](C)[C@@H]([C@@H](CC(=O)N1CCC[C@H]1[C@H](OC)[C@@H](C)C(=O)N[C@@H](Cc1ccccc1)c1nccs1)OC)N(C)C(=O)[C@@H](NC(=O)[C@H](C(C)C)N(C)C)C(C)C` [dolastatin 10] came in with a half-inhibitory concentration (IC50) in experiment [3] of 2.3 ± 0.7 µM. Moreover, on bovine brain tubulin [4], 2.8 µM corresponded to half-maximal inhibition (IC50) and the “effect on tubulin polymerization at high concentration” value is on record as “no further increase in inhibition”. The inhibition at 3 µM on bovine brain tubulin [4] (read-out: inhibition of monosodium glutamate-induced tubulin polymerization) was determined as 88%. Also, on porcine brain tubulin [1], the “displacement of [3H]TZT-1027 on tubulin” value is listed as “completely displaced” and the “displacement of [3H]VLB on tubulin” value is listed as “completely displaced”. Further, the “inhibition of [3H]GTP binding to tubulin” value in the experiment with porcine brain tubulin [5] is on record as “concentration-dependent inhibition”. In addition, the “inhibition of GTP hydrolysis on tubulin” value in the experiment on porcine brain tubulin [2] was “concentration-dependent inhibition”. The IC50 at bovine brain tubulin [6] is 1.2 µM.
The Kd is the concentration at which binding is half-saturated. Regarding `CC[C@]1(O)C[C@@H]2CN(CCc3c([nH]c4ccccc34)[C@@](C(=O)OC)(c3cc4c(cc3OC)N(C)[C@H]3[C@@](O)(C(=O)OC)[C@H](OC(C)=O)[C@]5(CC)C=CCN6CC[C@]43[C@@H]65)C2)C1` [VLB, vinblastine], in experiment [3], inhibition was half-maximal at 2.7 ± 0.6 µM (IC50) and the “inhibitory effect on microtubule polymerization at high concentration” value is “slight decrease in inhibitory effect”. In addition, at bovine brain tubulin [4], the midpoint of inhibition, the IC50, lay at 0.6 µM and the “effect on tubulin polymerization at high concentration” value was “aggregation”. Moreover, at porcine brain tubulin [7], the “Bmax, binding to tubulin (one binding site)” value is on record as 6.0±0.26 nM/mg protein and the affinity, expressed as Kd, was 0.2 ± 0.04 µM. Further, the “displacement of [3H]TZT-1027 on tubulin” value on porcine brain tubulin [1] is “only incompletely”. The “inhibition of [3H]GTP binding to tubulin” value in the experiment with porcine brain tubulin [5] is “no inhibitory effect”. Moreover, the “inhibition of GTP hydrolysis on tubulin” value with porcine brain tubulin [2] is given as “concentration-dependent inhibition”. The inhibition at 3 µM in experiment [8] came to 64.7%. Moreover, the “concentration with inhibitory effect on the binding of GTP to tubulin” value with porcine brain tubulin [9] is “above 100 M”.
Regarding `CC(=O)O[C@H]1C(=O)[C@@]2(C)[C@H]([C@H](OC(=O)c3ccccc3)[C@]3(O)C[C@H](OC(=O)[C@H](O)[C@@H](NC(=O)c4ccccc4)c4ccccc4)C(C)=C1C3(C)C)[C@]1(OC(C)=O)CO[C@@H]1C[C@@H]2O` [PTX, paclitaxel], on porcine brain tubulin [1], the “displacement of [3H]TZT-1027 on tubulin” value is “did not have remarkable inhibitory effects” and the “displacement of [3H]VLB on tubulin” value was “did not have remarkable inhibitory effects”.
With `CC[C@]1(O)C[C@H]2CN(CCc3c([nH]c4ccccc34)[C@@](C(=O)OC)(c3cc4c(cc3OC)N(C=O)[C@H]3[C@@](O)(C(=O)OC)[C@H](OC(C)=O)[C@]5(CC)C=CCN6CC[C@]43[C@@H]65)C2)C1` [VCR, vincristine], in experiment [3], the IC50 is 1.6 ± 0.4 µM and the “inhibitory effect on microtubule polymerization at high concentration” value is listed as “slight decrease in inhibitory effect”. The “displacement of [3H]TZT-1027 on tubulin” value at porcine brain tubulin [1] is listed as “the displacement was not complete”.
